{"source": "ChEMBL document CHEMBL4359841", "about": "“Late-Stage Functionalization of Platensimycin Leading to Multiple Analogues with Improved Antibacterial Activity in Vitro and in Vivo” (2019)", "note": "Activity calls are given as the source filed them. How the calls were made is not given here."}
{"tested_on": "Staphylococcus aureus", "experiment": "Inhibition of FabB/FabF in methicillin-resistant Staphylococcus aureus assessed as antibacterial activity at 5 ug/disk after 18 hrs by agar disk diffusion method"}
{"molecule": "C[C@]12C[C@@]34C=C(Sc5cccc(C#CCN)c5)C(=O)[C@@](C)(CCC(=O)Nc5c(O)ccc(C(=O)O)c5O)[C@@H]3[C@H](C[C@@H]1C4)O2", "antibacterial activity (disk diffusion, qualitative)": "Active"}
{"molecule": "C[C@]12C[C@@]34C=C(Sc5ccc(Cl)cc5)C(=O)[C@@](C)(CCC(=O)Nc5c(O)ccc(C(=O)O)c5O)[C@@H]3[C@H](C[C@@H]1C4)O2", "antibacterial activity (disk diffusion, qualitative)": "Active"}
{"molecule": "CC(C)(C)SC1=C[C@]23C[C@H]4C[C@H](O[C@@]4(C)C2)[C@H]3[C@](C)(CCC(=O)Nc2c(O)ccc(C(=O)O)c2O)C1=O", "antibacterial activity (disk diffusion, qualitative)": "Active"}
{"molecule": "C[C@]12C[C@@]34C=C(Sc5ccc(-c6cccc(O)c6)cc5)C(=O)[C@@](C)(CCC(=O)Nc5c(O)ccc(C(=O)O)c5O)[C@@H]3[C@H](C[C@@H]1C4)O2", "antibacterial activity (disk diffusion, qualitative)": "Active"}
{"molecule": "C[C@]12C[C@@]34C=C(Sc5ccc(-c6ccccc6)cc5)C(=O)[C@@](C)(CCC(=O)Nc5c(O)ccc(C(=O)O)c5O)[C@@H]3[C@H](C[C@@H]1C4)O2", "antibacterial activity (disk diffusion, qualitative)": "Active"}
{"molecule": "CCSC1=C[C@]23C[C@H]4C[C@H](O[C@@]4(C)C2)[C@H]3[C@](C)(CCC(=O)Nc2c(O)ccc(C(=O)O)c2O)C1=O", "antibacterial activity (disk diffusion, qualitative)": "Active"}
{"molecule": "CCCCc1ccc(SC2=C[C@]34C[C@H]5C[C@H](O[C@@]5(C)C3)[C@H]4[C@](C)(CCC(=O)Nc3c(O)ccc(C(=O)O)c3O)C2=O)cc1", "antibacterial activity (disk diffusion, qualitative)": "Active"}
{"molecule": "C=CCSC1=C[C@]23C[C@H]4C[C@H](O[C@@]4(C)C2)[C@H]3[C@](C)(CCC(=O)Nc2c(O)ccc(C(=O)O)c2O)C1=O", "antibacterial activity (disk diffusion, qualitative)": "Active"}
{"molecule": "C[C@]12C[C@@]34C=C(Sc5cccc(C#Cc6ccc(Cl)cc6)c5)C(=O)[C@@](C)(CCC(=O)Nc5c(O)ccc(C(=O)O)c5O)[C@@H]3[C@H](C[C@@H]1C4)O2", "antibacterial activity (disk diffusion, qualitative)": "Active"}
{"molecule": "C[C@]12C[C@@]34C=C(Sc5c(F)c(F)c(F)c(F)c5F)C(=O)[C@@](C)(CCC(=O)Nc5c(O)ccc(C(=O)O)c5O)[C@@H]3[C@H](C[C@@H]1C4)O2", "antibacterial activity (disk diffusion, qualitative)": "Active"}
{"molecule": "C[C@]12C[C@@]34C=C(Sc5cccc(/C=C/C(=O)OCCO)c5)C(=O)[C@@](C)(CCC(=O)Nc5c(O)ccc(C(=O)O)c5O)[C@@H]3[C@H](C[C@@H]1C4)O2", "antibacterial activity (disk diffusion, qualitative)": "Active"}
{"molecule": "C[C@]12C[C@@]34C=C(Sc5cc(Cl)cc(Cl)c5)C(=O)[C@@](C)(CCC(=O)Nc5c(O)ccc(C(=O)O)c5O)[C@@H]3[C@H](C[C@@H]1C4)O2", "antibacterial activity (disk diffusion, qualitative)": "Active"}
{"molecule": "C[C@]12C[C@@]34C=C(Sc5ccc(C#CC6CC6)cc5)C(=O)[C@@](C)(CCC(=O)Nc5c(O)ccc(C(=O)O)c5O)[C@@H]3[C@H](C[C@@H]1C4)O2", "antibacterial activity (disk diffusion, qualitative)": "Active"}
{"molecule": "C[C@]12C[C@@]34C=C(Sc5cccc(C#Cc6cccc(F)c6)c5)C(=O)[C@@](C)(CCC(=O)Nc5c(O)ccc(C(=O)O)c5O)[C@@H]3[C@H](C[C@@H]1C4)O2", "antibacterial activity (disk diffusion, qualitative)": "Active"}
{"molecule": "C[C@]12C[C@@]34C=C(Sc5ccc(C#Cc6ccc(C(=O)O)cc6)cc5)C(=O)[C@@](C)(CCC(=O)Nc5c(O)ccc(C(=O)O)c5O)[C@@H]3[C@H](C[C@@H]1C4)O2", "antibacterial activity (disk diffusion, qualitative)": "Active"}
{"molecule": "COc1ccccc1-c1cccc(SC2=C[C@]34C[C@H]5C[C@H](O[C@@]5(C)C3)[C@H]4[C@](C)(CCC(=O)Nc3c(O)ccc(C(=O)O)c3O)C2=O)c1", "antibacterial activity (disk diffusion, qualitative)": "Active"}
{"molecule": "C[C@]12C[C@@]34C=C(Sc5ccc(C#CC6(O)CCCCC6)cc5)C(=O)[C@@](C)(CCC(=O)Nc5c(O)ccc(C(=O)O)c5O)[C@@H]3[C@H](C[C@@H]1C4)O2", "antibacterial activity (disk diffusion, qualitative)": "Active"}
{"molecule": "C[C@]12C[C@@]34C=C(Sc5cccc(-c6cccnc6)c5)C(=O)[C@@](C)(CCC(=O)Nc5c(O)ccc(C(=O)O)c5O)[C@@H]3[C@H](C[C@@H]1C4)O2", "antibacterial activity (disk diffusion, qualitative)": "Active"}
{"molecule": "C[C@]12C[C@@]34C=C(Sc5ccc(/C=C/C(=O)O)cc5)C(=O)[C@@](C)(CCC(=O)Nc5c(O)ccc(C(=O)O)c5O)[C@@H]3[C@H](C[C@@H]1C4)O2", "antibacterial activity (disk diffusion, qualitative)": "Active"}
{"molecule": "COC(=O)/C=C/c1cccc(SC2=C[C@]34C[C@H]5C[C@H](O[C@@]5(C)C3)[C@H]4[C@](C)(CCC(=O)Nc3c(O)ccc(C(=O)O)c3O)C2=O)c1", "antibacterial activity (disk diffusion, qualitative)": "Active"}
{"molecule": "CCCCC#Cc1ccc(SC2=C[C@]34C[C@H]5C[C@H](O[C@@]5(C)C3)[C@H]4[C@](C)(CCC(=O)Nc3c(O)ccc(C(=O)O)c3O)C2=O)cc1", "antibacterial activity (disk diffusion, qualitative)": "Active"}
{"molecule": "C[C@]12C[C@@]34C=C(Sc5ccccc5C(=O)O)C(=O)[C@@](C)(CCC(=O)Nc5c(O)ccc(C(=O)O)c5O)[C@@H]3[C@H](C[C@@H]1C4)O2", "antibacterial activity (disk diffusion, qualitative)": "Active"}
{"molecule": "C[C@]12C[C@@]34C=C(Sc5ccc(C#Cc6ccccc6)cc5)C(=O)[C@@](C)(CCC(=O)Nc5c(O)ccc(C(=O)O)c5O)[C@@H]3[C@H](C[C@@H]1C4)O2", "antibacterial activity (disk diffusion, qualitative)": "Active"}
{"molecule": "CCCCC#Cc1cccc(SC2=C[C@]34C[C@H]5C[C@H](O[C@@]5(C)C3)[C@H]4[C@](C)(CCC(=O)Nc3c(O)ccc(C(=O)O)c3O)C2=O)c1", "antibacterial activity (disk diffusion, qualitative)": "Active"}
{"molecule": "C[C@]12C[C@@]34C=C(Sc5ccc(-c6ccccc6F)cc5)C(=O)[C@@](C)(CCC(=O)Nc5c(O)ccc(C(=O)O)c5O)[C@@H]3[C@H](C[C@@H]1C4)O2", "antibacterial activity (disk diffusion, qualitative)": "Active"}
{"molecule": "CC(C)(C)NC(=O)/C=C/c1ccc(SC2=C[C@]34C[C@H]5C[C@H](O[C@@]5(C)C3)[C@H]4[C@](C)(CCC(=O)Nc3c(O)ccc(C(=O)O)c3O)C2=O)cc1", "antibacterial activity (disk diffusion, qualitative)": "Active"}
{"molecule": "Cc1occc1SC1=C[C@]23C[C@H]4C[C@H](O[C@@]4(C)C2)[C@H]3[C@](C)(CCC(=O)Nc2c(O)ccc(C(=O)O)c2O)C1=O", "antibacterial activity (disk diffusion, qualitative)": "Active"}
{"molecule": "C[C@]12C[C@@]34C=C(Sc5ccc(C#CCN)cc5)C(=O)[C@@](C)(CCC(=O)Nc5c(O)ccc(C(=O)O)c5O)[C@@H]3[C@H](C[C@@H]1C4)O2", "antibacterial activity (disk diffusion, qualitative)": "Active"}
{"molecule": "COc1ccc(SC2=C[C@]34C[C@H]5C[C@H](O[C@@]5(C)C3)[C@H]4[C@](C)(CCC(=O)Nc3c(O)ccc(C(=O)O)c3O)C2=O)cc1", "antibacterial activity (disk diffusion, qualitative)": "Active"}
{"molecule": "C[C@]12C[C@@]34C=C(Sc5cccc(Br)c5)C(=O)[C@@](C)(CCC(=O)Nc5c(O)ccc(C(=O)O)c5O)[C@@H]3[C@H](C[C@@H]1C4)O2", "antibacterial activity (disk diffusion, qualitative)": "Active"}
{"molecule": "C[C@]12C[C@@]34C=C(Sc5cccc(-c6ccccc6)c5)C(=O)[C@@](C)(CCC(=O)Nc5c(O)ccc(C(=O)O)c5O)[C@@H]3[C@H](C[C@@H]1C4)O2", "antibacterial activity (disk diffusion, qualitative)": "Active"}
{"molecule": "C[C@]12C[C@@]34C=C(Sc5cccc(Cl)c5)C(=O)[C@@](C)(CCC(=O)Nc5c(O)ccc(C(=O)O)c5O)[C@@H]3[C@H](C[C@@H]1C4)O2", "antibacterial activity (disk diffusion, qualitative)": "Active"}
{"molecule": "Cc1ccc(C#Cc2cccc(SC3=C[C@]45C[C@H]6C[C@H](O[C@@]6(C)C4)[C@H]5[C@](C)(CCC(=O)Nc4c(O)ccc(C(=O)O)c4O)C3=O)c2)cc1", "antibacterial activity (disk diffusion, qualitative)": "Active"}
{"molecule": "C[C@]12C[C@@]34C=C(Sc5cccc(-c6cccc(O)c6)c5)C(=O)[C@@](C)(CCC(=O)Nc5c(O)ccc(C(=O)O)c5O)[C@@H]3[C@H](C[C@@H]1C4)O2", "antibacterial activity (disk diffusion, qualitative)": "Active"}
{"molecule": "COC(=O)/C=C/c1ccc(SC2=C[C@]34C[C@H]5C[C@H](O[C@@]5(C)C3)[C@H]4[C@](C)(CCC(=O)Nc3c(O)ccc(C(=O)O)c3O)C2=O)cc1", "antibacterial activity (disk diffusion, qualitative)": "Active"}
